According to US5110810A, “Method of using dehydroepiandrosterone and dehydroepiandrosterone-sulfate as inhibitors of platelet aggregation” (Virginia Commonwealth University, priority 1991, dated 1992):
Like-named read-outs stand apart in the source and are kept apart here.

Experiments:
[1] = test system: Thromboxane A2 (TxA2) synthesis, measured as Thromboxane B2 (TxB2); assay: Thromboxane production (TxB2 RIA) in platelet rich plasma after arachidonic acid; format: cell-based, human; conditions: for TxB2 produced: approximately three minutes incubation
Text: As discussed above, activation of platelets by arachidonic acid typically results in the generation of Thromboxane A2 (TxA2) The extent of TxA2 generated can be measured by radioimmunoassay (RIA) of its stable breakdown product Thromboxane B2 (TxB2) (see, JW Aiken, "Arachidonic Acid Metabolism and the Cardiovascular System" in Platelets and Prostaglandins in Cardiovascular Disease, J Mehta, P Mehta eds. Futura Publishing Co., Mt. Kisco, NY 1981). […] The platelet aggregation reaction was terminated at maximal aggregation or at four minutes, which ever occurred […], by the addition of 10 μM Indomethacin and 5.0 mM ethylenediaminetetraacetic acid (EDTA). Indomethacin and EDTA are commercially available reagents and were obtained from the Sigma Chemical Company. After adding the Indomethacin and EDTA reagents, the cuvettes containing the test sample were immediately placed on ice to cool. The test samples were then spun at a high speed in an Epindorf, Model 5415 micro-centrifuge, available from Brinkman Instruments, to sediment the platelets. Afterwards, plasma was removed from each sample. The TXB2 content was then assayed using commercial RIA kits available from Advanced Magnetics, Inc. of Massachussetts.

[2] = test system: platelets; assay: In vitro turbidimetric arachidonic acid induced platelet aggregation in platelet rich plasma; format: cell-based, human
Text: (§1) Referring now to the drawings and, more particularly to FIG. 1, two sample aggregometer tracings are shown which help illustrate the methods used by the inventors to analyze turbidimetric data. Aggregometers are well known research tools and the aggregometer used in the experiments discussed below was a Sienco dual chamber platelet aggregometer. A blood sample which is to be analyzed is drawn from volunteer donors into a 1/8 volume of acid-citrate-dextrose (an anticoagulant used to keep platelets from aggregation during preparative stages). For the in vitro experiments discussed below, the volunteer donors had not taken any medication for ten days prior to submitting the blood sample. The blood is then centrifuged at low speed to sediment red and white blood cells, leaving a fraction enriched in platelets called platelet-rich plasma (PRP). The platelet count was determined electronically using a Coulter counter The final concentration of platelets for a test sample was adjusted to 250,000 platelets/μL fluid by the addition of platelet-poor plasma.
(§2) The aggregometer acts essentially like a spectrophotometer to measure the turbidity of the platelet suspension as a function of the change in light transmission recorded over time. Prior to making turbidimetric measurements, the test samples were heated to 37° C. (body temperature) and stirred at a constant rate. Inhibitors and/or agonists are added to the test sample in very small quantities so as to minimize the dilutional effect. An important object of the present invention was showing that DHEA and DHEA-S are inhibitors of platelet aggregation. Arachidonic acid, available from Biodata Corp of Hatboro, Pennsylvania, is a well known agonist of platelets (i.e., the addition of arachidonic acid to platelets causes aggregation). In the experiments, DHEA and DHEA-S were added to the test sample prior to adding the arachidonic acid so that the platelets could be mixed with the inhibitor before any aggregation initiation caused by the arachidonic acid agonist occurred. Typically, 0.2-0.4 mM arachidonic acid was used to start platelet aggregation.
The aggregometer was calibrated such that the test samples, which contained 250,000 platelets/μl fluid, allowed 0% light transmission while Platelet Poor Plasma, which is essentially devoid of platelets, allowed 100% light transmission. […] The time to the nadir in the aggregometer tracing is called the "LAG" time. After the LAG time has passed, the platelets undergo a rapid phase of aggregation.
(§3) The overall rate of aggregation is determined in part by the LAG time and in part by the rate of the rapid aggregation phase. While the LAG time can easily be determined from the turbidimetric spectra, the rate of rapid aggregation phase is technically difficult to measure. […] Therefore, the experiments discussed below have primarily utilized the T1/2MAX measurement to quantitatively analyze the affect of DHEA and DHEA-S as platelet aggregation inhibitors.
DHEA-S is available from the Sigma Chemical Company in powder form. In the in vitro experiments, blood samples were taken from several young healthy donors taking no medications. Platelet rich plasma was prepared as described above for each test sample and the concentration of platelets in the test samples was adjusted to 250,000 platelets/μl fluid. Aggregation of the platelets in the test samples was initiated with 0.2 to 0.4 […] of arachidonic acid (there was a variability in the amount of arachidonic acid used among donors; however, the amount used was near the minimum that would consistently initiate aggregation). In all aggregation experiments 0.3 cc of platelet rich plasma was used and the test sample volume placed in the aggregometer ranged between 10 μl to 30 μl.
In the first in vitro experiment, different concentrations of DHEA-S were added to test samples and the rate of aggregation was monitored after the addition of arachidonic acid. […]

[3] = test system: cardiovascular disease mortality; conditions: increase in (endogenous) DHEA-S level of 100 μg/dL; adjusted for other risk factors; p <0.05; cited from earlier work
[4] = human patients; cited from earlier work
[5] = test system: atherosclerotic plaque; conditions: 2% cholesterol diet, balloon abrasion, 0.5% DHEA, cited from earlier work
[6] = Serum DHEA and DHEA-S levels by radio-immunoassay (RIA), oral DHEA in normal male volunteers; format: in vivo; conditions: human, 300 mg/day, DHEA group, 300 mg per day orally (100 mg three times a day), second week, read-out: mean serum DHEA level
Method: In vivo experimentation has been conducted with DHEA using a test group of ten male human being subjects. The in vivo experimentation comprised a double blind placebo controlled trial where ten normal male volunteers whose ages ranged between 22 and 37 years old were randomly divided into two five membered groups where the average age for each group was 25 years. In the in vivo experiment, the DHEA group received 300 mg of DHEA per day in the form of 100 mg capsules taken orally three times a day. The placebo group took placebo capsules which looked identical to the capsules containing DHEA three times a day. The DHEA and placebo capsules were prepared by the investigational pharmacy at the Medical College of Virginia and the code identifying which patients took DHEA and which took placebo was maintained by the pharmacy until the study was completed such that neither the patients nor the investigators were aware of who was taking DHEA or placebo. Each of the participants in the trial were told not to alter their lifestyles for the duration of the study and at the conclusion of the experiment each participant said that they had not done so. […]
Serum DHEA and DHEA-S levels for the patients was determined before the experiment began and at several later times during the experiment. […]

[7] = test system: glucose-6-phosphate dehydrogenase; conditions: cited from earlier work
[8] = test system: intracellular sulfatases; conditions: through the action of intracellular sulfatases; cited from earlier work
[9] = test system: aortic fatty streaks; conditions: 0.5% cholesterol and 0.5% DHEA diet; two months; cited from earlier work
[10] = test system: blood platelets; assay: Arachidonic acid induced platelet aggregation (turbidimetric) in volunteers taking DHEA; format: in vivo, human
Text: as §1, §2
The aggregometer was calibrated such that the test samples, which contained 250,000 platelets/μl fluid, allowed 0% light transmission while Platelet Poor Plasma, which is essentially devoid of platelets, allowed 100% light transmission. […]
as §3, with “inhibitors. […]” for “inhibitors.”

[11] = test system: oxidant injury in isolated rabbit lungs; conditions: cited from earlier work
[12] = test system: myocardial infarction; conditions: large clinical studies; cited from earlier work
[13] = test system: platelets; conditions: cited from earlier work
[14] = test system: platelets; conditions: cited from earlier work; remark: listed apart in the source

CC12CCC3C(CC=C4CC(OS(=O)(=O)O)CCC43C)C1CCC2=O (stereo not drawn) [DHEA-S, dehydroepiandrosterone-sulfate]
thromboxane production ([1]; treatment of blood with DHEA-S): reduce thromboxane production | T1/2MAX and LAG vs pre-incubation time ([2]; 3.3 μM DHEA-S (FIG. 5)): the greater the increase in T1/2MAX and LAG times | T1/2MAX and LAG vs baseline ([2]; 3.3 μM DHEA-S, 0 time pre-incubation (FIG. 5)): did increase the T1/2MAX and LAG from baseline | aggregation after 5.0 minute pre-incubation ([2]; 3.3 μM DHEA-S, 5.0 minutes, in most cases (FIG. 6)): complete inhibition of aggregation | time for T1/2MAX and LAG ([2]; 10.0 μM DHEA-S, three minutes incubation): not determinable | platelet aggregation response to increasing DHEA-S concentration ([2]; incubated three minutes before arachidonic acid, most test samples): dose dependent response | T1/2MAX and LAG times with increasing concentrations ([2]; three minutes incubation (FIG. 4)): increase with increasing concentrations of DHEA-S | reduction in mortality from cardiovascular disease [3]: 48%

C[C@]12CC[C@H](O)CC1=CC[C@@H]1[C@@H]2CC[C@]2(C)C(=O)CC[C@@H]12 [DHEA, dehydroepiandrosterone]
TxB2 produced ([1]; 3.3 μM DHEA): 46.0 ± 4.0 pg/mL | TxB2 produced ([1]; 6.7 μM DHEA): 27.3 ± 1.1 pg/mL | TxB2 produced ([1]; 10.0 μM DHEA): 21.8 ± 1.8 pg/mL | TxB2 produced vs concentration ([1]; increasing concentrations of DHEA (FIG. 7)): proportional decline in TxB2 produced | TxA2 synthesis ([1]; presence of added DHEA (FIG. 7)): net inhibition of TxA2 synthesis | HDL cholesterol levels [4]: without affecting HDL cholesterol levels | LDL cholesterol levels [4]: lower LDL cholesterol levels | body fat mass [4]: reduce body fat mass | muscle mass [4]: increase muscle mass | serum apilipoprotein B levels [4]: lower serum apilipoprotein B levels | tissue sensitivity to insulin [4]: not affect tissue sensitivity to insulin | individual reduction of plaque size vs serum level of DHEA [5]: inversely proportional to the serum level of DHEA attained | reduction in plaque size ([5]; vs rabbits not receiving DHEA): 50% | concentration at 336 h [6]: 28.7 ± 13.9 ng/mL | inhibition of glucose-6-phosphate dehydrogenase [7]: specific inhibitor | interconversion of DHEA with its sulfate ester [8]: readily interconvertible | platelet aggregation on pre-incubation ([2]; 3.3 μM, pre-incubation 0 to 5.0 minutes (FIG. 6)): prolong and eventually inhibit platelet aggregation | reduction in fatty streak formation, chemical analysis [9]: 30% | reduction in fatty streak formation, planimetry of the lesions [9]: 40% | aggregation response, fifth DHEA patient ([10]; 300 mg DHEA per day orally): no change | arachidonic acid induced platelet aggregation, one of the four responding subjects ([10]; 300 mg DHEA per day orally): completely inhibited | patients who developed a delay in the rate of aggregation or an increase in the minimal concentration of arachidonic acid required to initiate aggregation ([10]; 300 mg DHEA per day orally): four of the five patients | T1/2MAX and LAG curves vs arachidonic acid concentration ([10]; one DHEA treated patient, second week vs baseline (FIG. 3)): shifted to the right and upward | thromboxane B2 production [11]: unchanged | lung edema and pulmonary hypertension ([11]; platelets pretreated with DHEA): augmentation of the lung edema and pulmonary hypertension

CC(=O)Oc1ccccc1C(=O)O [aspirin]
incidence of myocardial infarction [12]: reduce the incidence of myocardial infarction | initial platelet adhesion [13]: does not inhibit initial platelet adhesion | platelet's role in atherogenesis [13]: does not appear to have an affect

O=[N+]([O-])c1cc(Cl)cc([N+](=O)[O-])c1 [CDNB, 1-chloro-3,5-dinitrobenzene]
GSH content of platelets [14]: chemically depletes GSH | HMPS pathway stimulation by GSH-depleted platelets [14]: do not stimulate the HMPS pathway | cytoskeletal protein polymerization of GSH-depleted platelets [14]: faster cytoskeletal protein oxidative polymerization but reversible aggregation | sensitivity of GSH-depleted platelets to oxidants [14]: more sensitive to oxidants | aggregation of GSH-depleted platelets ([14]; higher inducer concentrations): aggregate normally | aggregation of GSH-depleted platelets ([14]; low inducer concentrations, depending on the inducer): increased or depressed aggregation
